The target in one data set is T1, PI3Kβ (Homo sapiens, UniProt P42338).
T1 construct: purchased Proteros, Germany
Description: In-vitro enzyme assay (Kinase-Glo luminescent kinase assay), PI3Kβ. It counts as biochemical. To be noted: enzyme 2.29 μg/mL, ATP 10 μM, PIP2 60 μM, 2 hours; read-out: inhibitory activity (IC50) against PI3Kβ. Here is the method: (§1) A Kinase-Glo luminescent kinase assay kit (manufactured by Promega) was used for measuring kinase activity. In this assay, the amount of ATP remaining in a solution after a kinase reaction was measured. To confirm the effect of a compound on PI3Kδ inhibition, 2.29 μg/ml recombinant PI3Kδ enzyme (Proteros, Germany) was added to a reaction mixture containing 10 mM MgCl2, 5 mM DTT, 60 μM phosphatidylinositol diphosphate (PIP2) and an assay buffer (containing 50 mM HEPES, pH7.4, 50 mM NaCl, 0.05% CHAPS) supplemented with 10 μM ATP in a final volume of 15 μl/well, in the presence and absence of compound (I), in a 384-well plate. The reaction mixture was incubated at room temperature for 2 hours. At the end of the incubation period, the same volume of Kinase-Glo plus (Promega, V3772) was added per well. After the reaction mixture was incubated at room temperature for 10 minutes in a dark place, emission was measured. The results were calculated by measuring the emission unit of the test sample relative to a blank containing no enzyme.
(§2) Using specific recombinant enzymes (Proteros, Germany) PI3Kα, PI3Kβ and PI3Kγ, inhibitory activities of compound (I) against each of the kinases were examined. The assay conditions of kinases (PI3Kα, PI3Kβ, PI3Kγ and PI3Kδ) were as follows.
On the technique in general: In Kinase-Glo more light means more ATP remaining.

Data set [1] has as its system Ovalbumin-induced airway eosinophilia. Description: Ovalbumin-induced airway eosinophilia model in Brown Norway rat. It counts as in vivo. To be noted: Eosinophil; bid, oral gavage, male Brown Norway rat, 48 hours after ovalbumin challenge; read-out: ED50 value (eosinophils in bronchoalveolar lavage fluid). Here is the method:
Ovalbumin-Induced Airway Eosinophilia Model in Brown Norway Rat
The protocol used herein was described in Clin. Exp. Immunol., 2001; 126: 9 to 15 pages and J. Pharmacol. Exp. Ther., 2011; 337: 145 to 54 pages.
A male Brown Norway rat was sensitized by intraperitoneally injecting a suspension (in 0.9% physiological saline sterilized) of ovalbumin (1 mg) and aluminum hydroxide (100 mg) on Day 0 and Day 7. On Day 14, the compound (I) was administered to the rat by oral gavage. One hour after the oral administration, the animal was housed in a Perspex chamber and exposed to 5% ovalbumin aerosol for 10 minutes. The compound (I) was administered once or twice a day on Day 14 and Day 15. Forty eight hours after ovalbumin challenge, the animal was euthanized and bronchoalveolar lavage fluid was collected. The cell suspension was treated, and the absolute number of eosinophils were counted.

The nature of data set [2]: Method for examining solubility (JP1, JP2). It counts as physicochemical. To be noted: pH 1.2, simulated gastric fluid, thermodynamic from solid; Solution 1 (JP1) according to the Japanese Pharmacopoeia, room temperature. Here is the method: Method for Examining Solubility
A 10 mmol/L solution of the compound (I) in DMSO was prepared. The 10 mmol/L DMSO stock solution (100 μL) was dispensed to two labelled glass tubes: one for Solution 1 (JP1) according to the Japanese Pharmacopoeia and the other for Solution 2 (JP2) according to the Japanese Pharmacopoeia. DMSO was allowed to evaporate from each of the glass tubes, JP1 and JP2 solutions (500 μL) were added in the corresponding glass tubes. These glass tubes were ultrasonically treated for one minute and placed on a shaker for 30 minutes every 5 minutes at the intervals of 30 seconds. The glass tubes were placed in a dark place at room temperature for one hour and the solutions were filtered through a membrane filter. The filtrates were diluted 2 and 10 fold. The resultant test solutions were analyzed and quantified with UPLC (standard product: a 10 mmol/L solution in DMSO was serially diluted with a 50% aqueous acetonitrile solution to prepare two solutions: a 100 μmol/L standard solution and a 5 μmol/L standard solution) relative to the standard.

For data set [3], the system named is mitogen-induced IFN-γ release in mouse splenocytes. Description: Phytohaemagglutinin (PHA) inducible interferon (IFN)-gamma release in mouse splenocytes. To be noted: Splenocyte; C57BL/6 mouse splenocytes, PHA 10 μg/ml, 48 hours, ELISA; read-out: activity (IC50), inhibition of IFN-γ release. Type of data set: cell-based. Here is the method:
Phytohaemagglutinin (PHA) Inducible Interferon (IFN)-Gamma Release in Mouse Splenocytes
In a cell based assay system, the effect of a compound on mitogen-induced IFN-γ release in mouse splenocytes was evaluated [Blood (2010) 115: 2203 to 2213 pages; Current Protocols in Immunology (2004) 3.12.1 to 3.12.20].
Mouse splenocytes were obtained from the spleen of a C57BL/6 mouse and seeded in a 96-well tissue culture plate at a density of 250,000 cells/well. The splenocytes were treated with the compound (I), and thereafter, stimulated with PHA (10 μg/ml) for 48 hours. In this manner, an effect of compound (I) on inhibition of IFN-γ release was evaluated. The IFN-γ release in the cell culture supernatant was quantified by ELISA in accordance with the manufacturer's protocol (BD Biosciences, #555138).
Background: An ELISA detects its analyte on a solid surface through an enzyme-linked reagent.

Data set [4] in a line: Oral bioavailability (BA) in mice. Type of data set: in vivo. To be noted: plasma; male Swiss mouse, 10.0 mg/kg oral vs 3.0 mg/kg intravenous. Here is the method:
Oral Bioavailability (BA) in Mice
(§3) To a male Swiss mouse (23±3 g), the compound (I) was intravenously administered as a solution containing the compound (I) (0.3 mg/mL) in a vehicle containing polysorbate and dextrose (pH5.0) or orally as a suspension of the compound (I) (1.0 mg/mL) in methyl cellulose. The final dosage in the case of intravenous administration was 3.0 mg/body weight (1 kg) or that in the case of oral administration was 10.0 mg/body weight (1 kg). A plasma sample was analyzed for the compound (I) by the LC-MS/MS method. Pharmacokinetic parameters were estimated by moment analysis. WinNonlin software 6.1 (Pharsight) was used for estimating the PK parameters. Oral bioavailability was calculated based on dose-normalized oral exposure and intravenous plasma exposure amounts.

Another data set addresses T2, PI3Kα (Homo sapiens, UniProt P42336).
T2 construct: purchased Proteros, Germany
Description: In-vitro enzyme assay (Kinase-Glo luminescent kinase assay), PI3Kα. Type of data set: biochemical. To be noted: enzyme 2.29 μg/mL, ATP 10 μM, PIP2 60 μM, 2 hours; read-out: inhibitory activity (IC50) against PI3Kα. Here is the method: as §1, §2

Data set [5] deals with HDM-induced chronic asthma (eosinophils in bronchoalveolar lavage fluid). In words: House dust mite (HDM)-induced chronic asthma model of Balb/c mouse. It counts as in vivo. To be noted: Eosinophil; bid, oral, third to fifth week, female Balb/c mouse, 48 hours after final HDM exposure. As for the experimental part:
House Dust Mite (HDM)-Induced Chronic Asthma Model of Balb/c Mouse
The protocol used herein was described in Am. J. Respir. Crit. Care Med., 2004; 169: 378 to 385 pages.
A female Balb/c mouse was intranasally exposed to a purified HDM (Dermatophagoides pteronyssinus) extract at maximum for 5 successive weeks at a frequency of 5 days/week (protein (25 μg) in physiological saline (20 μl)). The compound (I) was orally administered twice a day from the third week to fifth week. Forty eight hours after the final HDM exposure, the animal was euthanized and bronchoalveolar lavage fluid was collected. The cell suspension was treated, and the absolute number of eosinophils were counted.

A short description of data set [6]: Oral bioavailability (BA) in rats. It counts as in vivo. To be noted: plasma; female Wistar rat, 10.0 mg/kg oral vs 3.0 mg/kg intravenous. Here is the method:
Oral Bioavailability (BA) in Rats
as §3, with “female Wistar rat (210±10” for “male Swiss mouse (23±3”, “(2.0” for “(0.3”

The target of a further data set is T3, PI3Kγ (Homo sapiens, UniProt P48736).
T3 construct: purchased Proteros, Germany
T3 sequence (P48736 whole entry, species assumed): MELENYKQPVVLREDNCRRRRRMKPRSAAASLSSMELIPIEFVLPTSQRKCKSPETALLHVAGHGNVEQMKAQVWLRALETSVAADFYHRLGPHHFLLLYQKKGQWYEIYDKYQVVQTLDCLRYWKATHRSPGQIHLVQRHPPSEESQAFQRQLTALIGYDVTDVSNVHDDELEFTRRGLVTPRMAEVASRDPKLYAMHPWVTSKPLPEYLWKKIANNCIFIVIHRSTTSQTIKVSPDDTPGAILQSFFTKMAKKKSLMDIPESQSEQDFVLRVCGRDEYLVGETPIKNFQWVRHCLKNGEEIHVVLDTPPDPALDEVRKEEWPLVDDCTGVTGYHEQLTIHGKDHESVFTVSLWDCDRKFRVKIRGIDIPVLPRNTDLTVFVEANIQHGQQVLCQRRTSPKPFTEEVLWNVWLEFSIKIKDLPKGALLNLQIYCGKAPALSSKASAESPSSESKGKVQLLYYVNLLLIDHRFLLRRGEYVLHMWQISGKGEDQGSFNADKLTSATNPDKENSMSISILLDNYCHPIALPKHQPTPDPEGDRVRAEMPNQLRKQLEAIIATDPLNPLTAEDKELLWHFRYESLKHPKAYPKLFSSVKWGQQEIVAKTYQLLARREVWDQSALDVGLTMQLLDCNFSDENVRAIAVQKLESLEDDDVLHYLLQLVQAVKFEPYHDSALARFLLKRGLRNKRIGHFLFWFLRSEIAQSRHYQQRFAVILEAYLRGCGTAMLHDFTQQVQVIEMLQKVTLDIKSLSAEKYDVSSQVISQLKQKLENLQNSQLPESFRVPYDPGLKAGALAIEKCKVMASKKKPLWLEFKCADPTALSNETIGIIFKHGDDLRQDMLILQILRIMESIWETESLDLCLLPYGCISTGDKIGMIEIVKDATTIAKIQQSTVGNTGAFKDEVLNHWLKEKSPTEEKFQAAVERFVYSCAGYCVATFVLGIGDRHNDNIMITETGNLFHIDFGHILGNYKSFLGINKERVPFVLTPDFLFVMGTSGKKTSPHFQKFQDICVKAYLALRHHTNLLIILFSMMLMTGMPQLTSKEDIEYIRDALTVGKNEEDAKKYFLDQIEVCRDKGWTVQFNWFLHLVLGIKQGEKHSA
Description: In-vitro enzyme assay (Kinase-Glo luminescent kinase assay), PI3Kγ. Type of data set: biochemical. To be noted: enzyme 2.29 μg/mL, ATP 10 μM, PIP2 60 μM, 2 hours; read-out: inhibitory activity (IC50) against PI3Kγ. Here is the method: as §1, §2

Each structure is given as a SMILES string.

T1 sequence (P42338 whole entry, species assumed): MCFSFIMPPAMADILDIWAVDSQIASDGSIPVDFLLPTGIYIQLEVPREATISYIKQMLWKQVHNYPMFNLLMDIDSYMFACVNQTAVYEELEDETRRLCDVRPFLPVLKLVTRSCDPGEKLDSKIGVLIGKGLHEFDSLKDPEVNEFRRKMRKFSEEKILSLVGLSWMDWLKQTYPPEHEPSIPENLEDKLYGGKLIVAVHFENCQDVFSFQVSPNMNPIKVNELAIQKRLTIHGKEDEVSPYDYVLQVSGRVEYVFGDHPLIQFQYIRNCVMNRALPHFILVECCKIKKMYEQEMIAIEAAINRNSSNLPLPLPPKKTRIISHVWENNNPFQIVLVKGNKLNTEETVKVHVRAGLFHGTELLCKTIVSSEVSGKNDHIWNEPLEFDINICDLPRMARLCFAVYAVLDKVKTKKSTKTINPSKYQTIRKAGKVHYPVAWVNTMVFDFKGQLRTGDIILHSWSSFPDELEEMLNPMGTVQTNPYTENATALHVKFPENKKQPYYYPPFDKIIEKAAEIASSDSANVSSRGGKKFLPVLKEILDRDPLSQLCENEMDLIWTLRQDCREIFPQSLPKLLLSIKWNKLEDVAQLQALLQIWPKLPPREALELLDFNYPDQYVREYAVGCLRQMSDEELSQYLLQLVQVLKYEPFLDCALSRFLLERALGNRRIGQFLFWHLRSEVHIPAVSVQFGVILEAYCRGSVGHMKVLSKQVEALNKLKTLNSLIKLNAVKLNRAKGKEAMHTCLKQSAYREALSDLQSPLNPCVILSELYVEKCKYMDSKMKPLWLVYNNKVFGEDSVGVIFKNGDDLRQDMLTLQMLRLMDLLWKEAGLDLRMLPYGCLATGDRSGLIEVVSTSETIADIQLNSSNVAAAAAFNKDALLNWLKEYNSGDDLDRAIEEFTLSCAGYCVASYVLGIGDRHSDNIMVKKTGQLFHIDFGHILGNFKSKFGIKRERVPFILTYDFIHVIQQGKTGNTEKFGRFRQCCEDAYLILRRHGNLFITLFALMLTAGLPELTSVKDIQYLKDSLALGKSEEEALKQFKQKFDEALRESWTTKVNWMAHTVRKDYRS
T1 sequence (P27986 whole entry partner, species assumed): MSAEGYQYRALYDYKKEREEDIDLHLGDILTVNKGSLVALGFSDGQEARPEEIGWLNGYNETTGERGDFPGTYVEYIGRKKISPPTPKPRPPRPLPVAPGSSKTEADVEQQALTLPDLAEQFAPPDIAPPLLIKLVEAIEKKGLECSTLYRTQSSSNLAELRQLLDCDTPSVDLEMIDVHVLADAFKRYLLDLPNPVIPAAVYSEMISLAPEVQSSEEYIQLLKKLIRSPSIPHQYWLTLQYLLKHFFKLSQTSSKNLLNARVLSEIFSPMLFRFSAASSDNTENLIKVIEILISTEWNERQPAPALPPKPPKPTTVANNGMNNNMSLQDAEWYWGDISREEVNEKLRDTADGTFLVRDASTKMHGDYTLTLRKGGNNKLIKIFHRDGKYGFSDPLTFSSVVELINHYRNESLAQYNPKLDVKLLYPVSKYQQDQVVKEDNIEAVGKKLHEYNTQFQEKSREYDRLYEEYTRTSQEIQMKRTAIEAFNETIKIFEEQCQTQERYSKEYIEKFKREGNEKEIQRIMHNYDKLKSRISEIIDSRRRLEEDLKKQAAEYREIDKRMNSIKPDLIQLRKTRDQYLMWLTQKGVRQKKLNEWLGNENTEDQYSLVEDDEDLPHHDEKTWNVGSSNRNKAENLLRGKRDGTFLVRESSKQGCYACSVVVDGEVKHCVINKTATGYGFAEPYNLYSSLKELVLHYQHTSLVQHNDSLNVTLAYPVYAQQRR
T2 sequence (P42336 whole entry, species assumed): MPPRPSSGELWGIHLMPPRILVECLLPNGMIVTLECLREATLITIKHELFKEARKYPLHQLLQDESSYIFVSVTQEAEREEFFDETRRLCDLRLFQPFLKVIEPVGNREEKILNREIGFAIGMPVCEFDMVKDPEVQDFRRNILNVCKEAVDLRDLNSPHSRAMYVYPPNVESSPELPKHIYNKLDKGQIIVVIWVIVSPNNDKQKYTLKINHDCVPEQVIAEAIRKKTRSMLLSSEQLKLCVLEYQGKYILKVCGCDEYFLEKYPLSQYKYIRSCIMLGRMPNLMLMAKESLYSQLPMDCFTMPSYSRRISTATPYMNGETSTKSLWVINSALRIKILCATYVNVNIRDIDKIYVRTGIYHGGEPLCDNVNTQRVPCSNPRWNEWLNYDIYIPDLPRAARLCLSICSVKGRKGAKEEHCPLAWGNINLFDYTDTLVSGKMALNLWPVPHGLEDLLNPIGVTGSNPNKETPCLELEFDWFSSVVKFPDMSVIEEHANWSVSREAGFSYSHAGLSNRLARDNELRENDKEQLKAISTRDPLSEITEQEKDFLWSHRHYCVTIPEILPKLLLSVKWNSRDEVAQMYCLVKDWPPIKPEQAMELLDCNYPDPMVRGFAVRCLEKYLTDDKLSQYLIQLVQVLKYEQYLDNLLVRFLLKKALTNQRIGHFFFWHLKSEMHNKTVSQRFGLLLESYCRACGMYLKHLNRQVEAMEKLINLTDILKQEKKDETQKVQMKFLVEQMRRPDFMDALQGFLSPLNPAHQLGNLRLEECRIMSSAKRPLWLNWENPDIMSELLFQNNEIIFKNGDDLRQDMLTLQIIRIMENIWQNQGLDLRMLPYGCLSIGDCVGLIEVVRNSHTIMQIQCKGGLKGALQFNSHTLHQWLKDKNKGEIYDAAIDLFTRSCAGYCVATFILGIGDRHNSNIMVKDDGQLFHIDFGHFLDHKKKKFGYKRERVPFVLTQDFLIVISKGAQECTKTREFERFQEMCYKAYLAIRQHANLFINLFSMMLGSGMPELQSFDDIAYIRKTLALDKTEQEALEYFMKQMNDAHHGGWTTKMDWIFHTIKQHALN
T2 sequence (P27986 whole entry partner, species assumed): as the sequence (P27986 whole entry partner, species assumed) above

On to `Cn1cc(-c2nc(N3CCOCC3)c3nc(C(=O)N4CCC(N5CCOCC5)CC4)[nH]c3n2)cn1` [compound (I), [2-(1-methyl-1H-pyrazol-4-yl)-6-(morpholin-4-yl)-9H-purin-8-yl][4-(morpholin-4-yl)piperidin-1-yl]methanone], for which the IC50 on PI3Kβ is ≥ 10000 nM; in data set [3], 6 nM; at PI3Kα, ≥ 1000 nM; at PI3Kγ, ≥ 1000 nM. In addition, the figures for the ED50 in data set [1] and in data set [5] were 0.3 mg/kg and 0.1 mg/kg, respectively. Besides, in data set [2], the solubility at 30 min was ≥ 1200 µg/mL. For the same molecule, the bioavailability came out at 100% in data set [4] and 88% in data set [6].

In general, IC50 refers to the concentration at which inhibition is half-maximal. A word on the ED50: it is the dose at which the effect has come halfway, by size or by number of responders. By solubility is commonly meant how much of the substance goes into solution per volume. One may read the bioavailability as the share of a dose that reaches the circulation, judged against a reference dose that is usually intravenous. A high value points to much systemic uptake.
